Experiment [1] deals with Candida albicans. In words: Antifungal activity against Candida albicans CPCC 400616 assessed as inhibition of fungal growth by microdilution method. The format is functional. For orientation: Dilution methods test growth across graded concentrations, often in twofold steps.
In experiment [2] the test system is Candida albicans. In words: Antifungal activity against Candida albicans ATCC SC5314 assessed as inhibition of fungal growth by microdilution method. It is filed as functional.
In a further experiment the test system is Nakaseomyces glabratus. In words: Antifungal activity against clinical isolate Candida glabrata assessed as inhibition of fungal growth by microdilution method. It is filed as functional.
The test system of a further experiment is Candida parapsilosis. In words: Antifungal activity against Candida parapsilosis 22019 assessed as inhibition of fungal growth by microdilution method. It is filed as functional. As to conditions: Lodderomyces parapsilosis.
In another experiment the test system is Pichia kudriavzevii. In words: Antifungal activity against Candida krusei AS 2.1045 assessed as inhibition of fungal growth by microdilution method. It is filed as functional.
A further experiment concerns Candida tropicalis. In words: Antifungal activity against Candida tropicalis CGMCC 2.3739 assessed as inhibition of fungal growth by microdilution method. The format is functional.
The next experiment has as its system Cryptococcus neoformans. In words: Antifungal activity against Cryptococcus neoformans CGMCC 2.3161 assessed as inhibition of fungal growth by microdilution method. It is filed as functional.
A further experiment has as its system Aspergillus fumigatus. In words: Antifungal activity against Aspergillus fumigatus CGMCC 3.7795 assessed as inhibition of fungal growth by microdilution method. The format is functional.
For a further experiment, the system named is HL-60. In words: Cytotoxicity against human HL-60 cells assessed as inhibition of cell growth by MTT assay. The format is functional, cell-based. Background: Tetrazolium dyes change colour on reduction, which living cells bring about.

A word on the MIC: it is the smallest concentration in the dilution series that meets the test's criterion for growth inhibition. Consider `OC(C[Se]Cc1ccccc1Cl)(Cn1cncn1)c1ccc(F)cc1F` (stereo not given), for which the minimum inhibitory concentration (MIC) in the experiment with Candida albicans [1] was 0.125 µg/mL; in the experiment with Candida albicans [2] it was 0.02 µg/mL; in the experiment on Nakaseomyces glabratus it was 0.5 µg/mL; in the experiment with Candida parapsilosis, 0.125 µg/mL; in the experiment on Pichia kudriavzevii it was 0.125 µg/mL; in the experiment with Candida tropicalis, 0.25 µg/mL. Also, the values for the minimum inhibitory concentration (MIC) with Cryptococcus neoformans and in the experiment with Aspergillus fumigatus were 0.25 µg/mL and 2 µg/mL, respectively.

For `Cc1cccc(C)c1[Se]CC(O)(Cn1cncn1)c1ccc(F)cc1F` (stereo not given), the MIC in the experiment on Candida albicans [1] is 0.06 µg/mL; with Candida albicans [2], 0.5 µg/mL; with Nakaseomyces glabratus it was 1 µg/mL; in the experiment on Candida parapsilosis it was 0.25 µg/mL; in the experiment on Pichia kudriavzevii, 0.125 µg/mL; in the experiment on Candida tropicalis, 1 µg/mL. Also, the MIC with Cryptococcus neoformans worked out at 0.25 µg/mL; in the experiment with Aspergillus fumigatus, 4 µg/mL.

In the case of `OC(C[Se]c1ccc(F)cc1)(Cn1cncn1)c1ccc(F)cc1F` (stereo not given), the MIC was determined as 0.25 µg/mL in the experiment with Candida albicans [1]; 0.125 µg/mL in the experiment with Candida albicans [2]; 4 µg/mL in the experiment on Nakaseomyces glabratus; 0.125 µg/mL in the experiment on Candida parapsilosis; 2 µg/mL with Pichia kudriavzevii; 0.5 µg/mL in the experiment on Candida tropicalis. In addition, the MIC with Cryptococcus neoformans is 0.25 µg/mL; in the experiment on Aspergillus fumigatus, 4 µg/mL.

In the case of `Cc1cc(C)cc([Se]CC(O)(Cn2cncn2)c2ccc(F)cc2F)c1` (stereo not given), the minimum inhibitory concentration (MIC) with Candida albicans [1] was 0.06 µg/mL; with Candida albicans [2], 0.03 µg/mL; with Nakaseomyces glabratus it was 4 µg/mL; in the experiment with Candida parapsilosis it was 0.25 µg/mL; in the experiment with Pichia kudriavzevii it was 2 µg/mL; in the experiment with Candida tropicalis it was 0.06 µg/mL. Moreover, the MIC turned out to be 0.03 µg/mL with Cryptococcus neoformans and 8 µg/mL in the experiment with Aspergillus fumigatus.

Turning to `Cc1cccc([Se]CC(O)(Cn2cncn2)c2ccc(F)cc2F)c1` (stereo not given), the MIC turned out to be 0.25 µg/mL in the experiment on Candida albicans [1]; 0.125 µg/mL in the experiment on Candida albicans [2]; 2 µg/mL with Nakaseomyces glabratus; 0.5 µg/mL in the experiment on Candida parapsilosis; 0.5 µg/mL with Pichia kudriavzevii; 1 µg/mL in the experiment on Candida tropicalis. For the same molecule, the minimal inhibitory concentration (MIC) in the experiment on Cryptococcus neoformans was 0.5 µg/mL; with Aspergillus fumigatus it was 8 µg/mL.

With `Cc1cccc(C[Se]CC(O)(Cn2cncn2)c2ccc(F)cc2F)c1` (stereo not given), the MIC in the experiment with Candida albicans [1] is 0.125 µg/mL; with Candida albicans [2], 0.06 µg/mL; in the experiment with Nakaseomyces glabratus, 4 µg/mL; in the experiment with Candida parapsilosis it was 0.25 µg/mL; in the experiment with Pichia kudriavzevii, 2 µg/mL; in the experiment on Candida tropicalis, 1 µg/mL. For the same molecule, the results for the minimum inhibitory concentration (MIC) with Cryptococcus neoformans and in the experiment on Aspergillus fumigatus were 1 µg/mL and 4 µg/mL, respectively.

As for `Cc1ccccc1[Se]CC(O)(Cn1cncn1)c1ccc(F)cc1F` (stereo not given), the minimum inhibitory concentration (MIC) with Candida albicans [1] was 1 µg/mL; in the experiment on Candida albicans [2], 0.03 µg/mL; in the experiment on Nakaseomyces glabratus it was 0.5 µg/mL; in the experiment with Candida parapsilosis it was 0.125 µg/mL; in the experiment on Pichia kudriavzevii it was 0.5 µg/mL; in the experiment on Candida tropicalis it was 1 µg/mL. Besides, the minimal inhibitory concentration (MIC) stood at 0.25 µg/mL with Cryptococcus neoformans and 16 µg/mL in the experiment on Aspergillus fumigatus.

For `CCc1ccccc1[Se]CC(O)(Cn1cncn1)c1ccc(F)cc1F` (stereo not given), the minimum inhibitory concentration (MIC) came to 0.25 µg/mL with Candida albicans [1]; 0.5 µg/mL in the experiment with Candida albicans [2]; 1 µg/mL in the experiment on Nakaseomyces glabratus; 0.25 µg/mL in the experiment on Candida parapsilosis; 1 µg/mL in the experiment with Pichia kudriavzevii; 2 µg/mL with Candida tropicalis. In addition, the values for the minimal inhibitory concentration (MIC) with Cryptococcus neoformans and in the experiment on Aspergillus fumigatus were 0.5 µg/mL and 4 µg/mL, respectively.

As to `CCc1ccc([Se]CC(O)(Cn2cncn2)c2ccc(F)cc2F)cc1` (stereo not given), the minimum inhibitory concentration (MIC) in the experiment with Candida albicans [1] is 1 µg/mL; with Candida albicans [2] it was 0.5 µg/mL; in the experiment with Nakaseomyces glabratus, 4 µg/mL; with Candida parapsilosis it was 0.5 µg/mL; in the experiment on Pichia kudriavzevii, 2 µg/mL; with Candida tropicalis, 2 µg/mL. Further, the MIC with Cryptococcus neoformans turned out to be 1 µg/mL; in the experiment on Aspergillus fumigatus it was 4 µg/mL.

Take `Cc1ccc(C)c([Se]CC(O)(Cn2cncn2)c2ccc(F)cc2F)c1` (stereo not given): the MIC in the experiment on Candida albicans [1] is 1 µg/mL; in the experiment with Candida albicans [2] it was 1 µg/mL; in the experiment on Nakaseomyces glabratus, 2 µg/mL; with Candida parapsilosis it was 0.5 µg/mL; in the experiment on Pichia kudriavzevii, 1 µg/mL; in the experiment with Candida tropicalis it was 0.5 µg/mL. Further, the MIC in the experiment on Cryptococcus neoformans stood at 0.25 µg/mL; with Aspergillus fumigatus, 2 µg/mL.

`OC(C[Se]Cc1ccc(C(F)(F)F)cc1)(Cn1cncn1)c1ccc(F)cc1F` (stereo not given): the MIC in the experiment on Candida albicans [1] worked out at 0.03 µg/mL; in the experiment with Candida albicans [2], 0.03 µg/mL; with Nakaseomyces glabratus it was 4 µg/mL; in the experiment on Candida parapsilosis, 0.25 µg/mL; with Pichia kudriavzevii, 2 µg/mL; in the experiment with Candida tropicalis, 0.5 µg/mL. Further, the MIC came to 0.5 µg/mL in the experiment on Cryptococcus neoformans and 4 µg/mL with Aspergillus fumigatus.

Consider `OC(C[Se]Cc1cccc(F)c1)(Cn1cncn1)c1ccc(F)cc1F` (stereo not given), for which the MIC with Candida albicans [1] is 0.06 µg/mL; in the experiment with Candida albicans [2], 0.03 µg/mL; with Nakaseomyces glabratus it was 2 µg/mL; with Candida parapsilosis, 0.25 µg/mL; in the experiment on Pichia kudriavzevii, 1 µg/mL; in the experiment on Candida tropicalis, 0.25 µg/mL. Further, the MIC in the experiment with Cryptococcus neoformans and in the experiment with Aspergillus fumigatus was 2 µg/mL in each case.

Take `Cc1ccc(C[Se]CC(O)(Cn2cncn2)c2ccc(F)cc2F)cc1` (stereo not given): the MIC with Candida albicans [1] came to 0.125 µg/mL; in the experiment on Candida albicans [2], 0.06 µg/mL; with Nakaseomyces glabratus it was 2 µg/mL; with Candida parapsilosis, 0.25 µg/mL; in the experiment with Pichia kudriavzevii, 2 µg/mL; with Candida tropicalis it was 1 µg/mL. In addition, the results for the minimum inhibitory concentration (MIC) in the experiment on Cryptococcus neoformans and with Aspergillus fumigatus were 1 µg/mL and 2 µg/mL, respectively.

With `COc1cccc(C[Se]CC(O)(Cn2cncn2)c2ccc(F)cc2F)c1` (stereo not given), the MIC stood at 0.25 µg/mL in the experiment on Candida albicans [1]; 0.125 µg/mL with Candida albicans [2]; 4 µg/mL in the experiment with Nakaseomyces glabratus; 0.25 µg/mL in the experiment with Candida parapsilosis; 8 µg/mL with Pichia kudriavzevii; 4 µg/mL with Candida tropicalis. For the same molecule, the MIC with Cryptococcus neoformans worked out at 2 µg/mL; in the experiment with Aspergillus fumigatus, 4 µg/mL.

Regarding `OC(C[Se]Cc1ccc(F)cc1)(Cn1cncn1)c1ccc(F)cc1F` (stereo not given), the minimal inhibitory concentration (MIC) in the experiment on Candida albicans [1] was found to be 0.06 µg/mL; in the experiment with Candida albicans [2], 0.03 µg/mL; with Nakaseomyces glabratus it was 1 µg/mL; in the experiment with Candida parapsilosis, 0.25 µg/mL; in the experiment with Pichia kudriavzevii it was 1 µg/mL; with Candida tropicalis, 0.5 µg/mL. Moreover, the MIC in the experiment on Cryptococcus neoformans and with Aspergillus fumigatus was 2 µg/mL in each case.

Consider `COc1cccc([Se]CC(O)(Cn2cncn2)c2ccc(F)cc2F)c1` (stereo not given), for which the minimum inhibitory concentration (MIC) in the experiment on Candida albicans [1] was 0.5 µg/mL; in the experiment on Candida albicans [2], 0.02 µg/mL; in the experiment on Nakaseomyces glabratus, 4 µg/mL; with Candida parapsilosis, 0.125 µg/mL; with Pichia kudriavzevii it was 2 µg/mL; with Candida tropicalis it was 2 µg/mL. Moreover, the minimal inhibitory concentration (MIC) in the experiment with Cryptococcus neoformans is 1 µg/mL; in the experiment on Aspergillus fumigatus, 8 µg/mL.

The IC50 is the concentration that gives 50% inhibition. `COc1cccc2c1C(=O)c1c(O)c3c(c(O)c1C2=O)C[C@@](O)(C(=O)CO)C[C@@H]3O[C@H]1C[C@H](N)[C@H](O)[C@H](C)O1` [DOXORUBICIN]: the IC50 with HL-60 was less than 125 nM.

As to `Clc1ccc(COC(Cn2ccnc2)c2ccc(Cl)cc2Cl)c(Cl)c1` (stereo not given) [MICONAZOLE], in the experiment with Candida tropicalis, the MIC amounted to 1 µg/mL.

Values taken from ChEMBL document CHEMBL5236585, “Design, synthesis and antifungal activities of novel triazole derivatives with selenium-containing hydrophobic side chains” (Bioorg Med Chem Lett, 2022).
